Experimental data as given in patent US6355799B1, “Substituted benzene compounds, process for their preparation, and herbicidal and defoliant compositions containing them” (ISK Americas Incorporated, priority 1997, dated 2002).

What was measured:
Format in all cases: in vivo
[1] = test system: sicklepod (Cassia obtusifolia, CASOB); assay: Post-emerge test, greenhouse herbicide activity screening; settings: post-emerge, 14 days after application, rating scale 0-100
Procedure, shortened: (§1)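 Rating: 0–100 visual injury, 14 DAA. Application: acetone, 187 l/ha, 15–1000 g ai/ha, flat-fan track sprayer with nozzle 40–45 cm above soil or canopy. Post-emerge runs used 0.25% v/v surfactant on 2–3 leaf plants.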

[2] = test system: green foxtail (Setaria viridis, SETVI); assay: as above; settings: post-emerge, 14 days after application, rating scale 0-100
Procedure, shortened: as §1

[3] = test system: johnsongrass (Sorghum halepense, SORHA); assay: as above; settings: post-emerge, 14 days after application, rating scale 0-100
Procedure, shortened: as §1

[4] = test system: velvetleaf (Abutilon theophrasti, ABUTH); assay: as above; settings: post-emerge, 14 days after application, rating scale 0-100
Procedure, shortened: as §1

[5] = test system: lambsquarters (Chenopodium album, CHEAL); assay: as above; settings: post-emerge, 14 days after application, rating scale 0-100
Procedure, shortened: as §1

[6] = test system: ivyleaf morningglory (Ipomoea hederacea, IPOHE); assay: as above; settings: post-emerge, 14 days after application, rating scale 0-100
Procedure, shortened: as §1

[7] = test system: barnyardgrass (Echinochloa crus-galli, ECHCG); assay: as above; settings: post-emerge, 14 days after application, rating scale 0-100
Procedure, shortened: as §1

[8] = test system: redroot pigweed (Amaranthus retroflexus, AMARE); assay: as above; settings: post-emerge, 14 days after application, rating scale 0-100
Procedure, shortened: as §1

[9] = test system: large crabgrass (Digitaria sanguinalis, DIGSA); assay: as above; settings: post-emerge, 14 days after application, rating scale 0-100
Procedure, shortened: as §1

[10] = test system: field corn (Zea mays L., var. Dekalb 535, CORN); assay: Post-emerge test, crop safety; settings: post-emerge, 14 days after application, rating scale 0-100
Procedure, shortened: (§2)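 Herbicidal damage is scored 0 (none) to 100 (complete plant death) two weeks after a simulated field spray. Rates span 15–1000 g ai/ha, delivered in acetone at 187 l/ha. For post-emergence treatments, plants have 2–3 leaves and the spray carries 0.25% v/v non-ionic surfactant.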

[11] = test system: upland rice (Oryza sp., var. Tebonnet, RICE); assay: Post-emerge test, crop safety; settings: post-emerge, 14 days after application, rating scale 0-100
Procedure, shortened: as §2

[12] = test system: redroot pigweed (Amaranthus retroflexus, AMARE); assay: Pre-emerge test, greenhouse herbicide activity screening; settings: pre-emerge, 14 days after application, scale 0-100
Procedure, shortened: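 Sandy loam pots; pre-emerge: sown 1 d pre-spray, surface-watered after, then bottom-watered. Post-emerge: sown 8–21 d before, 2–3 leaf stage, + 0.25% v/v NIS, bottom-watered. Acetone, 187 l/ha track spray, 15–1000 g ai/ha. 0–100 injury score, day 14.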

[13] = test system: field corn (Zea mays L., var. Dekalb 535, CORN); assay: Pre-emerge test, crop safety; settings: pre-emerge, 14 days after application, scale 0-100
Procedure, shortened: (§3)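 Compounds in acetone were track-sprayed at 187 l/ha, 15–1000 g ai/ha, onto sandy loam pots. Pre-emerge seeds were sown one day before spraying, with surface watering afterwards. Post-emerge plants were at the 2–3 leaf stage and sprayed with 0.25% v/v non-ionic surfactant. Injury was rated 0–100 at 14 days.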

[14] = test system: upland rice (Oryza sp., var. Tebonnet, RICE); assay: Pre-emerge test, crop safety; settings: pre-emerge, 14 days after application, scale 0-100
Procedure, shortened: as §3

[15] = test system: sicklepod (Cassia obtusifolia, CASOB); assay: Pre-emerge test, greenhouse herbicide activity screening; settings: pre-emerge, 14 days after application, scale 0-100
Procedure, shortened: as §2

[16] = test system: green foxtail (Setaria viridis, SETVI); assay: as above; settings: pre-emerge, 14 days after application, scale 0-100
Procedure, shortened: as §2

[17] = test system: johnsongrass (Sorghum halepense, SORHA); assay: as above; settings: pre-emerge, 14 days after application, scale 0-100
Procedure, shortened: as §2

[18] = test system: velvetleaf (Abutilon theophrasti, ABUTH); assay: as above; settings: pre-emerge, 14 days after application, scale 0-100
Procedure, shortened: as §2

[19] = test system: lambsquarters (Chenopodium album, CHEAL); assay: as above; settings: pre-emerge, 14 days after application, scale 0-100
Procedure, shortened: as §2

[20] = test system: ivyleaf morningglory (Ipomoea hederacea, IPOHE); assay: as above; settings: pre-emerge, 14 days after application, scale 0-100
Procedure, shortened: as §2

[21] = test system: common ragweed (Ambrosia artemisizfolia L., AMBEL); assay: as above; settings: pre-emerge, 14 days after application, scale 0-100
Procedure, shortened: as §2

[22] = test system: barnyardgrass (Echinochloa crus-galli, ECHCG); assay: as above; settings: pre-emerge, 14 days after application, scale 0-100
Procedure, shortened: as §2

[23] = test system: large crabgrass (Digitaria sanguinalis, DIGSA); assay: as above; settings: pre-emerge, 14 days after application, scale 0-100
Procedure, shortened: as §2

Compound: Cc1c(Cl)cc(F)c(-n2c(=O)cc(C(F)(F)F)n(C)c2=O)c1NC(=O)C=Cc1ccccc1 [2-123]
- phytotoxicity rating CASOB ([1]; 63 g ai/ha): 100
- phytotoxicity rating CASOB ([1]; 250 g ai/ha): 100
- phytotoxicity rating SETVI ([2]; 63 g ai/ha): 20
- phytotoxicity rating SETVI ([2]; 250 g ai/ha): 30
- phytotoxicity rating SORHA ([3]; 63 g ai/ha): 10
- phytotoxicity rating SORHA ([3]; 250 g ai/ha): 30
- phytotoxicity rating ABUTH ([4]; 63 g ai/ha): 100
- phytotoxicity rating ABUTH ([4]; 250 g ai/ha): 100
- phytotoxicity rating CHEAL ([5]; 63 g ai/ha): 100
- phytotoxicity rating CHEAL ([5]; 250 g ai/ha): 100
- phytotoxicity rating IPOHE ([6]; 63 g ai/ha): 100
- phytotoxicity rating IPOHE ([6]; 250 g ai/ha): 100
- phytotoxicity rating ECHCG ([7]; 63 g ai/ha): 10
- phytotoxicity rating ECHCG ([7]; 250 g ai/ha): 20
- phytotoxicity rating AMARE ([8]; 63 g ai/ha): 100
- phytotoxicity rating AMARE ([8]; 250 g ai/ha): 100
- phytotoxicity rating DIGSA ([9]; 63 g ai/ha): 10
- phytotoxicity rating DIGSA ([9]; 250 g ai/ha): 30
- phytotoxicity rating CORN ([10]; 63 g ai/ha): 35
- phytotoxicity rating CORN ([10]; 250 g ai/ha): 40
- phytotoxicity rating RICE ([11]; 63 g ai/ha): 60
- phytotoxicity rating RICE ([11]; 250 g ai/ha): 70
- phytotoxicity rating AMARE ([12]; 63 g ai/ha): 100
- phytotoxicity rating AMARE ([12]; 250 g ai/ha): 100
- phytotoxicity rating CORN (crop damage) ([13]; 63 g ai/ha): 0
- phytotoxicity rating CORN (crop damage) ([13]; 250 g ai/ha): 15
- phytotoxicity rating RICE (crop damage) ([14]; 63 g ai/ha): 30
- phytotoxicity rating RICE (crop damage) ([14]; 250 g ai/ha): 80
- phytotoxicity rating CASOB ([15]; 63 g ai/ha): 60
- phytotoxicity rating CASOB ([15]; 250 g ai/ha): 90
- phytotoxicity rating SETVI ([16]; 63 g ai/ha): 80
- phytotoxicity rating SETVI ([16]; 250 g ai/ha): 100
- phytotoxicity rating SORHA ([17]; 63 g ai/ha): 30
- phytotoxicity rating SORHA ([17]; 250 g ai/ha): 70
- phytotoxicity rating ABUTH ([18]; 63 g ai/ha): 100
- phytotoxicity rating ABUTH ([18]; 250 g ai/ha): 100
- phytotoxicity rating CHEAL ([19]; 63 g ai/ha): 100
- phytotoxicity rating CHEAL ([19]; 250 g ai/ha): 100
- phytotoxicity rating IPOHE ([20]; 63 g ai/ha): 100
- phytotoxicity rating IPOHE ([20]; 250 g ai/ha): 100
- phytotoxicity rating AMBEL ([21]; 63 g ai/ha): 95
- phytotoxicity rating AMBEL ([21]; 250 g ai/ha): 100
- phytotoxicity rating ECHCG ([22]; 63 g ai/ha): 40
- phytotoxicity rating ECHCG ([22]; 250 g ai/ha): 80
- phytotoxicity rating DIGSA ([23]; 63 g ai/ha): 60
- phytotoxicity rating DIGSA ([23]; 250 g ai/ha): 100
